# In ChEMBL document CHEMBL5344441, “Discovery and Preclinical Pharmacology of NX-2127, an Orally Bioavailable Degrader of Bruton's Tyrosine Kinase with Immunomodulatory Activity for the Treatment of Patients with B Cell Malignancies” (J Med Chem, 2024):
# Activity calls are given as the source filed them. The rule behind the calls is not given here.
# Experiments:
# [1] = molecular target: T1, Protein cereblon/Tyrosine-protein kinase BTK (Mus musculus) (UniProt P35991+Q8C7D2); experiment: In vivo protac activity at CRBN/BTK in BALB/c mouse assessed as residual BTK protein in blood at 30 mg/kg,po administration measured after 24 hrs by flow cytomtery relative to control
# [2] = molecular target: Voltage-gated inwardly rectifying potassium channel KCNH2 (Homo sapiens, UniProt Q12809); experiment: Inhibition of human ERG; format: toxicity
# [3] = Oral bioavailability in rat at 10 mg/kg; format: ADME, organism-based; conditions: in vivo
# [4] = molecular target: Cytochrome P450 2C19 (Homo sapiens, UniProt P33261); experiment: Inhibition of CYP2C19 (unknown origin); format: ADME
# [5] = Observed clearance in cynomolgus monkey at 1 mg/kg,iv; format: ADME, organism-based, Macaca fascicularis; conditions: in vivo
# [6] = molecular target: T1, Protein cereblon/Tyrosine-protein kinase BTK (Mus musculus); experiment: In vivo protac activity at CRBN/BTK in BALB/c mouse assessed as residual BTK protein in blood at 0.3 mg/kg,po administration measured after 24 hrs by flow cytomtery relative to control
# [7] = molecular target: T2, Protein cereblon/Zinc finger protein Aiolos (Macaca fascicularis) (UniProt A0A2K5UTB3+A0A2K5VJM3); experiment: In vivo protac activity at CRBN/IKZF3 in cynomolgus monkey assessed as degradation of IKZF3 protein at po administration measured after 24 hrs by flow cytomtery; format: functional, organism-based
# [8] = tested on: TMD8; experiment: Antitumor activity against human TMD8 cells expressing wild type BTK xenografted in CB17-SCID mouse assessed as tumor growth inhibition at 90 mg/kg,po administration for 25 days; format: functional; conditions: TMD8, 600 h, time 25 day, read-out: TGI
# [9] = molecular target: Tyrosine-protein kinase BTK (Homo sapiens, UniProt Q06187); experiment: Binding affinity to BTK (unknown origin) assessed as dissociation constant by surface plasmon resonance assay
# [10] = molecular target: T3, Protein cereblon-BTK (Macaca fascicularis) (UniProt A0A2K5UTB3+A0A7N9IGT8); experiment: In vivo protac activity at CRBN/BTK in cynomolgus monkey assessed as remaining BTK protein in B cells at 30 mg/kg,po administration for 1 day by flow cytomtery relative to control; format: functional, organism-based
# [11] = Cmax in mouse at 10 mg/kg,po; format: ADME, organism-based; design: dose 10 mg/kg, route po; conditions: in vivo
# [12] = molecular target: T1, Protein cereblon/Tyrosine-protein kinase BTK (Mus musculus); experiment: In vivo protac activity at CRBN/BTK in BALB/c mouse assessed as residual BTK protein in blood at 10 mg/kg,po administration measured after 24 hrs by flow cytomtery relative to control
# [13] = Plasma protein binding in dog; format: ADME, cell-free, Canis lupus familiaris; conditions: read-out: PPB (converted)
# [14] = molecular target: T2, Protein cereblon/Zinc finger protein Aiolos (Macaca fascicularis); experiment: In vivo protac activity at CRBN/IKZF3 in cynomolgus monkey assessed as degradation of IKZF3 protein at 100 mg/kg,po administration for 14 days by flow cytomtery relative to control; format: functional, organism-based; conditions: time 14.0 day
# [15] = molecular target: Cytochrome P450 2D6 (Homo sapiens, UniProt P10635); experiment: Inhibition of CYP2D6 (unknown origin); format: ADME
# [16] = molecular target: T3, Protein cereblon-BTK (Macaca fascicularis); experiment: In vivo protac activity at CRBN/BTK in cynomolgus monkey assessed as remaining BTK protein in B cells at 10 to 100 mg/kg,po administration for 14 days by flow cytomtery relative to control; format: functional, organism-based; conditions: dose 10-100 mg/kg, time 14.0 day
# [17] = molecular target: Protein cereblon-BTK (Canis lupus familiaris) (UniProt A0A8I3NIQ5+A0A8I3P7Z3); experiment: In vivo protac activity at CRBN/BTK in Beagle dog assessed as remaining BTK protein at 10 mg/kg,po administration measured after 24 hrs by flow cytomtery relative to control; format: functional, organism-based
# [18] = molecular target: T3, Protein cereblon-BTK (Macaca fascicularis); experiment: In vivo protac activity at CRBN/BTK in cynomolgus monkey assessed as remaining BTK protein in B cells at 100 mg/kg,po administration for 1 day by flow cytomtery relative to control; format: functional, organism-based
# [19] = Apparent permeability across apical to basolateral side in human Caco-2 cells; format: ADME, cell-based
# [20] = Plasma protein binding in mouse; format: ADME, cell-free; conditions: read-out: PPB
# [21] = tested on: Protein cereblon/Tyrosine-protein kinase BTK (Homo sapiens); experiment: In vivo protac activity at CRBN/BTK in CB17-SCID mouse xenografted with human TMD8 cells assessed as degradation of BTK protein in tumor at 10 to 90 mg/kg,po administration for 25 days by flow cytomtery; conditions: dose 10-90 mg/kg, time 25.0 day
# [22] = molecular target: T1, Protein cereblon/Tyrosine-protein kinase BTK (Mus musculus); experiment: In vivo protac activity at CRBN/BTK in CB17-SCID mouse assessed as degradation of BTK protein in B cells at 10 to 90 mg/kg,po administration for 25 days by flow cytomtery; format: functional, organism-based; conditions: dose 10-90 mg/kg, time 25.0 day
# [23] = AUClast in cynomolgus monkey at 10 mg/kg,po administration for 14 days; format: ADME, organism-based, Macaca fascicularis; design: time 14 day, dose 10 mg/kg, route po; conditions: in vivo
# [24] = molecular target: T1, Protein cereblon/Tyrosine-protein kinase BTK (Mus musculus); experiment: In vivo protac activity at CRBN/BTK in CD-1 mouse assessed as remaining BTK protein in blood at 30 mg/kg,po administration measured after 24 hrs by flow cytomtery relative to control; format: functional, organism-based
# [25] = molecular target: T2, Protein cereblon/Zinc finger protein Aiolos (Macaca fascicularis); experiment: In vivo protac activity at CRBN/IKZF3 in cynomolgus monkey assessed as degradation of IKZF3 protein at 30 mg/kg,po administration for 14 days by flow cytomtery relative to control; format: functional, organism-based; conditions: time 14.0 day
# [26] = molecular target: Protein cereblon/Tyrosine-protein kinase BTK (Homo sapiens, UniProt Q06187+Q96SW2, C481S); experiment: PROTAC activity at CRBN/BTK C481S mutant in human TMD8 cells assessed as degradation of BTK protein incubated for 4 hrs by HTRF assay; format: cell-based
# [27] = AUC in rat at 10 mg/kg,po; format: ADME, organism-based; design: dose 10 mg/kg, route po; conditions: in vivo
# [28] = molecular target: T3, Protein cereblon-BTK (Macaca fascicularis); experiment: In vivo protac activity at CRBN/BTK in cynomolgus monkey assessed as remaining BTK protein at 10 mg/kg,po administration measured after 24 hrs by flow cytomtery relative to control; format: functional, organism-based
# [29] = Aqueous solubility of the compound in PBS at pH 7.4; format: physicochemical
# T3 sequence (A0A2K5UTB3 1-488): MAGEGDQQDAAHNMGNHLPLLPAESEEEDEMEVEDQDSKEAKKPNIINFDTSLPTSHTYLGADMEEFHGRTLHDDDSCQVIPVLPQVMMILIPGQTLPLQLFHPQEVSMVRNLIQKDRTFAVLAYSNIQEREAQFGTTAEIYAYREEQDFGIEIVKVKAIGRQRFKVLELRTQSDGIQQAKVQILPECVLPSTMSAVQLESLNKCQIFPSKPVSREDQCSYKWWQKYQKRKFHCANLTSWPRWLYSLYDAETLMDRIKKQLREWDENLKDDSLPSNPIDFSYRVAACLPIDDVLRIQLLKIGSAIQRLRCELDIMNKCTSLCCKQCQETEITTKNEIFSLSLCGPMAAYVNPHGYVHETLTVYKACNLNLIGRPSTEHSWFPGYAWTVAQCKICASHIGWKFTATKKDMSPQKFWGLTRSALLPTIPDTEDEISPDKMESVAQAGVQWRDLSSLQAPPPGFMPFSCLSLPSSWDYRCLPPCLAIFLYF
# T3 sequence (A0A7N9IGT8 entry or part of it partner): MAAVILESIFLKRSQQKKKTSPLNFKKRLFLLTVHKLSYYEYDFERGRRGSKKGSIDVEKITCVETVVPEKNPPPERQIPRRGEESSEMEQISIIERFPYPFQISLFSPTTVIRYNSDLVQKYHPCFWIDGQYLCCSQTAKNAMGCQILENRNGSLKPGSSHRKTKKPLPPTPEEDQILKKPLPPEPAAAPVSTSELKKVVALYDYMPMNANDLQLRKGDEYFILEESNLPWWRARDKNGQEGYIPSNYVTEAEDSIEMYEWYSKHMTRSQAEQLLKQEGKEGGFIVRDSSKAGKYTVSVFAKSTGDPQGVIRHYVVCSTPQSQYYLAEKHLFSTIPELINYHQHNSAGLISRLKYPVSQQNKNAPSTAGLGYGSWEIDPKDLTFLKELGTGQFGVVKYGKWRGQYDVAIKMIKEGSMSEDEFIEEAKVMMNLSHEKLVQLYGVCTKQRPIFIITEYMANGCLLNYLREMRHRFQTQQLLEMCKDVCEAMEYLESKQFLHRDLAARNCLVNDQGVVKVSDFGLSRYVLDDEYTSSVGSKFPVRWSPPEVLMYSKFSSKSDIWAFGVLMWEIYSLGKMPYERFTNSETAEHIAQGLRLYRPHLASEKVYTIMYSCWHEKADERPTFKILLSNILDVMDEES
# T2 sequence (A0A2K5UTB3 1-488): as the sequence (A0A2K5UTB3 1-488) above
# T2 sequence (A0A2K5VJM3 entry or part of it partner): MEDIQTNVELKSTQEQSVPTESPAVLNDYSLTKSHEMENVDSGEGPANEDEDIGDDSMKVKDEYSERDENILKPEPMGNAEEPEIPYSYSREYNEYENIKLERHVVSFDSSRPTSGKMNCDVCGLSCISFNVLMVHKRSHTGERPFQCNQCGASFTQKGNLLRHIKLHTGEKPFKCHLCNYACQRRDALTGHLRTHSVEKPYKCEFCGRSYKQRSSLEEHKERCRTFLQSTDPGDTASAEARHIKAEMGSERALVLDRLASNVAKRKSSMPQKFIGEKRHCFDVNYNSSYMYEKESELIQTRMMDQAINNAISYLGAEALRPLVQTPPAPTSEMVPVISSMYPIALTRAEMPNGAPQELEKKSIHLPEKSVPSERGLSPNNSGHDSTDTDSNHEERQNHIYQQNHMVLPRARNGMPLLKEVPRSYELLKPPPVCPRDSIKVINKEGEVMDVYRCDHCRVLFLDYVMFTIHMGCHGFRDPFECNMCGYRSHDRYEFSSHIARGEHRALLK
# T1 sequence (P35991 whole entry, looked up): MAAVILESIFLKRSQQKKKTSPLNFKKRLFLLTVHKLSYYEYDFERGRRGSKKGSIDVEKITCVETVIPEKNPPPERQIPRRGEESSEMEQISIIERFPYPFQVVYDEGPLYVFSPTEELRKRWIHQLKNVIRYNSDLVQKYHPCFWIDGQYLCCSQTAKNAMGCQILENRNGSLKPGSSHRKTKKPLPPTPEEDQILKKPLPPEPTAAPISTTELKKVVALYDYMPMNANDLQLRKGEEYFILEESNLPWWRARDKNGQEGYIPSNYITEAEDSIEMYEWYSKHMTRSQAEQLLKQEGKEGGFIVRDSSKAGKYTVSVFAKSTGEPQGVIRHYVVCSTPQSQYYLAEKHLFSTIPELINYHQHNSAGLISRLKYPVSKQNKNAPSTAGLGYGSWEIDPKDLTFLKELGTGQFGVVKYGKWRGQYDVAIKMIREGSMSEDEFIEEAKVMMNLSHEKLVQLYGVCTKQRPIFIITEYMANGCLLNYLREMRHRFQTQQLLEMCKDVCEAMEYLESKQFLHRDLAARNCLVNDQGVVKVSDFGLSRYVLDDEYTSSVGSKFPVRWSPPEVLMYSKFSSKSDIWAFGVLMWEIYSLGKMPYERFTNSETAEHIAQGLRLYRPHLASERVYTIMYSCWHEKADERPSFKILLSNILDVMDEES
# T1 sequence (Q8C7D2 whole entry, looked up): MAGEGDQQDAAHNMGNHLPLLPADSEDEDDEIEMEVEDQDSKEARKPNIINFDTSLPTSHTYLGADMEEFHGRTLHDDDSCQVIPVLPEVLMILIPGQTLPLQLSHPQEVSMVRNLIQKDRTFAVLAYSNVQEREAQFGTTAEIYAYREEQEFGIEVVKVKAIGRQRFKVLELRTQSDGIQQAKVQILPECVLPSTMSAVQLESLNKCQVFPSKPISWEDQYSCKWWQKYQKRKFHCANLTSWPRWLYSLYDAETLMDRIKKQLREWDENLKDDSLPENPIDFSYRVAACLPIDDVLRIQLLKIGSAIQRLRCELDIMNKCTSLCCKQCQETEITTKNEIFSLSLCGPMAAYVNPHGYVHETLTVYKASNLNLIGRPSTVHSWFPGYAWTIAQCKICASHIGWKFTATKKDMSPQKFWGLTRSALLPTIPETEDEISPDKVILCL
# Chain of Tyrosine-protein kinase BTK (Q06187 whole entry): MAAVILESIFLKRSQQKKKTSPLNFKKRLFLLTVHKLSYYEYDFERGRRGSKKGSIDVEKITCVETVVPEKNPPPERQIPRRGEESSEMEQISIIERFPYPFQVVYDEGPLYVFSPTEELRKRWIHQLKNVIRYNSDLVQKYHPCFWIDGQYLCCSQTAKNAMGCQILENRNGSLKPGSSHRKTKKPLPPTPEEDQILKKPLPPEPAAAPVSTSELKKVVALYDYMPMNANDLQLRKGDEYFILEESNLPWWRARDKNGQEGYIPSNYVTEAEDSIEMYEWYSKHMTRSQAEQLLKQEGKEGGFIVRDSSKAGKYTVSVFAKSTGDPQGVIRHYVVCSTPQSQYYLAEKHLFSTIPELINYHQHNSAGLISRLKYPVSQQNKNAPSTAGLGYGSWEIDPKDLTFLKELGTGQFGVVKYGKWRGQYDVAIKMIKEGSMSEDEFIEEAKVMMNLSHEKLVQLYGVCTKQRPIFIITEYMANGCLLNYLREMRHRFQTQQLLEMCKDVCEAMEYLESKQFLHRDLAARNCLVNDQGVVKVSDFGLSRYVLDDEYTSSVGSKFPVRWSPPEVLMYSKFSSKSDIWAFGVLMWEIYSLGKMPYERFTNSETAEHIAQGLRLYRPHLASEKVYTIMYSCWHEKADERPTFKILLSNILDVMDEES
# Chain of Protein cereblon/Tyrosine-protein kinase BTK (Q06187 2-659 C481S limits assumed, stated change not applied): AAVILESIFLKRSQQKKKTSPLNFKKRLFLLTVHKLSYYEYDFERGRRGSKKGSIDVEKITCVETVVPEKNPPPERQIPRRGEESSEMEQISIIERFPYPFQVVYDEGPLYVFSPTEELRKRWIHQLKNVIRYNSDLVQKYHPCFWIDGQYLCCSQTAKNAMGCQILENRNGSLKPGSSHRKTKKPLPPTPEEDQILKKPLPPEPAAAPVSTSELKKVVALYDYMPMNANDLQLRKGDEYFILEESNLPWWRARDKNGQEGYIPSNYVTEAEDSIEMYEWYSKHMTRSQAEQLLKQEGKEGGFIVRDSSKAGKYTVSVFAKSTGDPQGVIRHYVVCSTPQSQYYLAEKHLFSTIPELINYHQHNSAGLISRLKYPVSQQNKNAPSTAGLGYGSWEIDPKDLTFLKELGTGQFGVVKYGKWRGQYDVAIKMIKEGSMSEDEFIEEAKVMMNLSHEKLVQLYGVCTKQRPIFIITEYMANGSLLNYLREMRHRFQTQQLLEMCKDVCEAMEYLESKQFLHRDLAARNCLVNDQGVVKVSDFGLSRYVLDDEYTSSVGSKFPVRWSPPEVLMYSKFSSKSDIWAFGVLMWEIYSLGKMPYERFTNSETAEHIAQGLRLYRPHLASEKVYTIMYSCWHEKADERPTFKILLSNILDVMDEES
# Chain of Protein cereblon/Tyrosine-protein kinase BTK (Q96SW2 whole entry, stated change not applied): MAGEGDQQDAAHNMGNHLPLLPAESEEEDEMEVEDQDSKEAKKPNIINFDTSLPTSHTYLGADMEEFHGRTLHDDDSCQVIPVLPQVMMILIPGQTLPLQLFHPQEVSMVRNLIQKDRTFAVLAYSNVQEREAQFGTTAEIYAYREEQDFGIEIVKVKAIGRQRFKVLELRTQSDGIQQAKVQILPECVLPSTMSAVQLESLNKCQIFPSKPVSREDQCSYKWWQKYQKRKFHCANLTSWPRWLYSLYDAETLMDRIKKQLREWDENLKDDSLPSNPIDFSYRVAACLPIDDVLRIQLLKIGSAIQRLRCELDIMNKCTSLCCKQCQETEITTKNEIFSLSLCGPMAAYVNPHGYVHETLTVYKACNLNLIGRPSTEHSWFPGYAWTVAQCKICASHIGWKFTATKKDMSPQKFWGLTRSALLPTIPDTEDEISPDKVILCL
smiles,measurement,setting,value
NC(=O)c1ncc(N2CCCCC2)nc1Nc1ccc(C2CCN(C[C@H]3CCN(c4ccc5c(c4)C(=O)N(C4CCC(=O)NC4=O)C5=O)C3)CC2)cc1 (some centres undefined) [ZELEBRUDOMIDE],residual activity,[1],12%
same,IC50,[2],> 30 µM
same,bioavailability,[3],7.1%
same,IC50,[4],> 30 µM
same,clearance,[5],1.33 L/h/kg
same,residual activity,[6],81%
same,Activity,[7],Dose-Dependent Effect
same,inhibition in vivo at 90 mg/kg,[8],99%
same,Kd,[9],0.045 µM
same,Activity,[10],9%
same,Cmax,[11],1.3 µM
same,residual activity,[12],21%
same,fraction unbound,[13],0.025
same,Activity,[14],43%
same,IC50,[15],> 30 µM
same,Activity,[16],< 10%
same,Activity,[17],17%
same,Activity,[18],8%
same,Papp A→B,[19],< 0.2 nm/s
same,fraction unbound,[20],< 0.015
same,Activity,[21],Active
same,Activity,[22],Active
same,AUC(0-t) at 336 h,[23],0.366 µg·h/mL
same,Activity,[24],11%
same,Activity,[25],55%
same,DC50,[26],0.031 µM
same,AUC,[27],890 nM·h
same,Activity,[28],10%
same,solubility,[29],0.2 µM
